Laboratory results from US20130065868A1, “ANXIOYTIC MARCGRAVIACEAE COMPOSITIONS CONTAINING BETULINIC ACID, BETULINIC ACID DERIVATIVES, AND METHODS” (UNIVERSITY OF OTTAWA, priority 2002, published 2013).

How the values were obtained:
BALB/c mice = test: Elevated plus maze test in BALB/c mice; type: in vivo, mouse; conditions: vs peanut oil only control
Description: BALB/c mice represent a strain of mice that is very stress-reactive.
Mice received dosages of betulinic acid in accordance with the previous example.

[1] = Elevated plus maze, betulinic acid vs structurally related compounds (Example 11); type: in vivo; conditions: 0.5 mg/kg (FIG. 7)
Description: This example compares the anxiolytic activity of betulinic acid and some other structurally related compounds. Results are illustrated in FIG. 7.

Sprague-Dawley rats = test: Rat social interaction paradigm; type: in vivo; conditions: 0.5 mg/kg i.p.
Description: The rat social interaction paradigm takes advantage of rats' natural behaviour in novel situations. The more ‘anxious’ the animals are, the less likely they are engage in social interaction with the cohort. Anxiolytic drugs typically increase the amount of time rodents spend socially interacting with one another. (Pile, S. E., (1980). The use of social interaction as a method for detecting anxiolytic activity of chlor-diazepoxide-like drugs. In Current Protocols in Neuroscience (pp. 8.3.3-8.3.4), John-Wiley & Sons).
The social-interaction (SI) test arena constituted of a 60×60 cm white Plexiglas floor, enclosed by 35-cm high walls of the same material. The arena was surrounded by black curtain, and a closed circuit camera was positioned above the setup, to feed live video signals to the experimenter seated in a separate room, for behavioral assessment and recording.
Each rat was placed alone in the SI box for 7.5 min daily for 2 days, in order to familiarize the animals with the test environment. Animals were paired according to their body weights (less than 10 g difference) and each pair was randomly assigned to one of the treatment groups. Rats received either betulinic acid 0.5 mg/kg i.p., betulinic acid methyl ester (methyl betulinate) 0.5 mg/kg i.p., or peanut oil only (control). Drugs were injected (i.p.) 60 min prior to testing. Tests were carried out at three intervals, 1 h, 2.5 h and 4 h after injection. Each pair was tested at the 1-h interval, then new pairs from within the same drug group were formed for the 2.5-h interval and then again at the 4-h interval (new pairs were formed for each test interval, to control for the potential confounding effect partner familiarity). […] The behaviors scored included the amount of time the pairs spent interacting together (sniffing, grooming and chasing) as well as the number of times the animals initiated contact.

Sprague Dawley rats = test: Locomotor activity after chronic administration; type: in vivo, rat; conditions: chronic 0.5 mg/kg daily orally, one night 5 p.m. to 7 a.m. (FIG. 11)
Protocol: Test animals and drug treatments were as in Example 14. Locomotor activity was recorded for one night (5 p.m. to 7 a.m. the following morning) in the control as well as in the betulinic acid and methyl ester of betulinic acid exposed groups. Locomotor activity was monitored using infrared sensors located on the roof of the animals' cage. Eight independent sensors monitored activity of animals according to the number of quadrants traversed.

[2] = Weight gain over chronic treatment; type: in vivo, rat; conditions: rats, chronic 0.5 mg/kg daily orally (FIG. 12)
[3] = Acute or chronic toxicity at repeated doses; type: in vivo; conditions: 500 mg/kg vs anxiolytic dose
Description: This is a dose 1000 times higher than that needed to reduce anxiety.

adrenergic α2 = test: MDS Panlabs screen: adrenergic α2; type: binding; conditions: Catecholamines
Protocol: (§1) Tests were conducted by MDS Panlabs to determine whether any of the classical neurotransmitter systems or the peptidergic systems thought to play a role in anxiety are affected by betulinic acid.

adrenergic β = test: MDS Panlabs screen: adrenergic β; type: binding; conditions: Catecholamines
Protocol: as §1

NE transporter = NE transporter (Homo sapiens, UniProt P23975); test: MDS Panlabs screen: NE transporter; type: binding; conditions: Catecholamines
Protocol: as §1

domaine D2 = domaine D2 (Homo sapiens, UniProt P14416); test: MDS Panlabs screen: D2; type: binding; conditions: Catecholamines
Protocol: as §1

GABAA, agonist site = test: MDS Panlabs screen: GABAA, agonist site; type: binding; conditions: Gabaergic
Protocol: as §1

GABA C1-channel = test: MDS Panlabs screen: GABA channel; type: binding; conditions: Gabaergic
Protocol: as §1

GABAB = GABAB (Homo sapiens, UniProt Q9UBS5); test: MDS Panlabs screen: GABAB; type: binding; conditions: Gabaergic
Protocol: as §1

Glutamate non-selective = test: MDS Panlabs screen: Glutamate non-selective; type: binding; conditions: Gabaergic
Protocol: as §1

Histamine H1 = Histamine H1 (Homo sapiens, UniProt P35367); test: MDS Panlabs screen: Histamine H1; type: binding
Protocol: as §1

Histamine H2 = Histamine H2 (Homo sapiens, UniProt P25021); test: MDS Panlabs screen: Histamine H2; type: binding
Protocol: as §1

5-HT1A = 5-HT1A (Homo sapiens, UniProt P08908); test: MDS Panlabs screen: 5-HT1A; type: binding; conditions: Serotonin (5-HT)
Protocol: as §1

5-HT3 = 5-HT3 (Homo sapiens, UniProt P46098); test: MDS Panlabs screen: 5-HT3; type: binding; conditions: Serotonin (5-HT)
Protocol: as §1

muscarinic non-selective = test: MDS Panlabs screen: muscarinic non-selective; type: binding; conditions: Acetylcholine
Protocol: as §1

Sigma non-selective = test: MDS Panlabs screen: Sigma non-selective; type: binding
Protocol: as §1

bombesin = test: MDS Panlabs screen: bombesin; type: binding; conditions: Peptides
Protocol: as §1

cannabinoid C131 = cannabinoid C131 (Homo sapiens, UniProt P21554); test: MDS Panlabs screen: cannabinoid (first subtype); type: binding; conditions: Peptides
Protocol: as §1

CCKA = CCKA (Homo sapiens, UniProt P32238); test: MDS Panlabs screen: cholecystokinin (CCK) CCKA; type: binding; conditions: Peptides
Protocol: as §1

galanin GalR1 = galanin GalR1 (Homo sapiens, UniProt P47211); test: MDS Panlabs screen: galanin GalR1; type: binding; conditions: Peptides
Protocol: as §1

GLP-1 = GLP-1 (Homo sapiens, UniProt P43220); test: MDS Panlabs screen: GLP-1; type: binding; conditions: Peptides
Protocol: as §1

tachykinin NK2 = tachykinin NK2 (Homo sapiens, UniProt P21452); test: MDS Panlabs screen: tachykinin NK2; type: binding; conditions: Peptides
Protocol: as §1

COX-1 = COX-1 (Homo sapiens, UniProt P23219); test: MDS Panlabs screen: cyclooxygenase COX-1; type: biochemical
Protocol: as §1

COX-2 = COX-2 (Homo sapiens, UniProt P35354); test: MDS Panlabs screen: cyclooxygenase COX-2; type: biochemical
Protocol: as §1

[4] = general description of the substance; cited from earlier work

Sequence of 5-HT1A (P08908 whole entry, species assumed): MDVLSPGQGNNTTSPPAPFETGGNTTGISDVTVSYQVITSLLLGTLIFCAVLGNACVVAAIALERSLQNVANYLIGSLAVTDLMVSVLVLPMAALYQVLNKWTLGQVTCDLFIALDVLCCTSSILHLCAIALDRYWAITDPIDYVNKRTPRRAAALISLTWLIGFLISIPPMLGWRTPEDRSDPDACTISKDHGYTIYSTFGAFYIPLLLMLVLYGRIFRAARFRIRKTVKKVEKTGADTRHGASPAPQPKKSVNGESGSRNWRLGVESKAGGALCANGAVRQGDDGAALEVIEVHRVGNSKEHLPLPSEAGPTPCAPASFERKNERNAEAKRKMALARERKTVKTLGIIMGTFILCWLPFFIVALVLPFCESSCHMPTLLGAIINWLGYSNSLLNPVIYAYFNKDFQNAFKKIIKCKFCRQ
Sequence of galanin GalR1 (P47211 whole entry): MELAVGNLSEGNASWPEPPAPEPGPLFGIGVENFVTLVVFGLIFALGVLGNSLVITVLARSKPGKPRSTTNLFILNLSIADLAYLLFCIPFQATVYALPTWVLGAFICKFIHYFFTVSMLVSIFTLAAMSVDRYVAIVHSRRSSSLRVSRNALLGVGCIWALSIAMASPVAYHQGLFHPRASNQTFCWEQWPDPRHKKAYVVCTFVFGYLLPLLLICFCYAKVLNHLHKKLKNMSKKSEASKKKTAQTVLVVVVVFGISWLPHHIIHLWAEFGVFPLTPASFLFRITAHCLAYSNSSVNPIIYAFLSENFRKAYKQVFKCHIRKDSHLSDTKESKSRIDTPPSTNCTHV
Sequence of COX-1 (P23219 24-599): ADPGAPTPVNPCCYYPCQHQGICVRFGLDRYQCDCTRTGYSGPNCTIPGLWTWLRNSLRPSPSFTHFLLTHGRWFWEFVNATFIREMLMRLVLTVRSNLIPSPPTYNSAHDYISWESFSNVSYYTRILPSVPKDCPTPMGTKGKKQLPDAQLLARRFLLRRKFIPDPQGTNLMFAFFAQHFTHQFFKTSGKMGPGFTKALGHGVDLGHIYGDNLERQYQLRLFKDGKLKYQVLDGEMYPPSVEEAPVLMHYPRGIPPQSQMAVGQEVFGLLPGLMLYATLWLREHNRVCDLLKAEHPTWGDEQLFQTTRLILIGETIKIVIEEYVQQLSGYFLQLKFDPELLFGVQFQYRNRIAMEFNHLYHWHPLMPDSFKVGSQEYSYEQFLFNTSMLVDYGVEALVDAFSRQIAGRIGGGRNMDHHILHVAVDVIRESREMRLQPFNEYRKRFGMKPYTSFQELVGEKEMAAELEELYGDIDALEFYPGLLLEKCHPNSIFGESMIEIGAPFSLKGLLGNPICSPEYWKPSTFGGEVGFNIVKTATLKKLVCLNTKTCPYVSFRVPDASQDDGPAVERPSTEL
Sequence of 5-HT3 (P46098 24-478, species assumed): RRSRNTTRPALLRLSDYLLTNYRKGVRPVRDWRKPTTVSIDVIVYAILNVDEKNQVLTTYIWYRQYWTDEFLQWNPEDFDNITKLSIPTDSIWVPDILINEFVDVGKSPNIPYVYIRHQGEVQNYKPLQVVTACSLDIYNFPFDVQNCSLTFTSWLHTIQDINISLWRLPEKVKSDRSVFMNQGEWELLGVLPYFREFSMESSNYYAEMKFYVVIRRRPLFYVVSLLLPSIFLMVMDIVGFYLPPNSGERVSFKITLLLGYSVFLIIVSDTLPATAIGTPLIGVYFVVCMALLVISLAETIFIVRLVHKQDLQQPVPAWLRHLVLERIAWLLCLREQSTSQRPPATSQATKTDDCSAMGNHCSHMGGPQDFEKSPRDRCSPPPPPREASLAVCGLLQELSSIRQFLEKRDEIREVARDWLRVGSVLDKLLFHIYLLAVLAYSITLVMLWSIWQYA
Sequence of GLP-1 (P43220 24-463): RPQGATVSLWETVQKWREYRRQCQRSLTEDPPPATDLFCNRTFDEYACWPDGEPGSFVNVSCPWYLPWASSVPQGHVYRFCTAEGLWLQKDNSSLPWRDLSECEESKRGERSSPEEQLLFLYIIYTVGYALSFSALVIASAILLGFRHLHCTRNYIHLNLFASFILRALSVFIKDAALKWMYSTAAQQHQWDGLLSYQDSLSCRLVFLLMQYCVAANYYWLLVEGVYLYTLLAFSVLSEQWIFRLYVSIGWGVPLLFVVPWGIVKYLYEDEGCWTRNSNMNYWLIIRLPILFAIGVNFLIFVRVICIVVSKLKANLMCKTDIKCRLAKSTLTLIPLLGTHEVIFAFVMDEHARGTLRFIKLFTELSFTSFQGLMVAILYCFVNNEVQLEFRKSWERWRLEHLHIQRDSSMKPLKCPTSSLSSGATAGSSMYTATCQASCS
Sequence of Histamine H2 (P25021 whole entry): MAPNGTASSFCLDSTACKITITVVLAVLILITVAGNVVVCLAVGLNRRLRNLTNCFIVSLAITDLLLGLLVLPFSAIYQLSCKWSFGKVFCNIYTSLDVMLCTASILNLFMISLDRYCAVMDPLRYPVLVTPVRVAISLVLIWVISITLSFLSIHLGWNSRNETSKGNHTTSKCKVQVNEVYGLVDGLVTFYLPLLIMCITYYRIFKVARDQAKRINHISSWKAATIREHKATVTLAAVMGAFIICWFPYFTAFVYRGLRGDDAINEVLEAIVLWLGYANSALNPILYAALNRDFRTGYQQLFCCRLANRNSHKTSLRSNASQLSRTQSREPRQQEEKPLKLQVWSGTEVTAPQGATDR
Sequence of Histamine H1 (P35367 whole entry): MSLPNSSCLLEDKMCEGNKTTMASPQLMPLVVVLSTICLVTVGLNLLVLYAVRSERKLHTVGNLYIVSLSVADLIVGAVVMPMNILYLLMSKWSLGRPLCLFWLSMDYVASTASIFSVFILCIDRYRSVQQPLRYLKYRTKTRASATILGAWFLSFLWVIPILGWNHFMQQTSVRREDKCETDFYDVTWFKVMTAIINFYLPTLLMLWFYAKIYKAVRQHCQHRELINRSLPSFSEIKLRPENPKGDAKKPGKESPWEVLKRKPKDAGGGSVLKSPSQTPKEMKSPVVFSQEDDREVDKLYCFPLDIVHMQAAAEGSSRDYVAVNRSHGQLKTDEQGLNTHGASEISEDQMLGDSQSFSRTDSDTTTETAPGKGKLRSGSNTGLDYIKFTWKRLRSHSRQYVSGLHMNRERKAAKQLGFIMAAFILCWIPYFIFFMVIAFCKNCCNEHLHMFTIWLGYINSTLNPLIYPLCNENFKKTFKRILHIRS
Sequence of tachykinin NK2 (P21452 whole entry): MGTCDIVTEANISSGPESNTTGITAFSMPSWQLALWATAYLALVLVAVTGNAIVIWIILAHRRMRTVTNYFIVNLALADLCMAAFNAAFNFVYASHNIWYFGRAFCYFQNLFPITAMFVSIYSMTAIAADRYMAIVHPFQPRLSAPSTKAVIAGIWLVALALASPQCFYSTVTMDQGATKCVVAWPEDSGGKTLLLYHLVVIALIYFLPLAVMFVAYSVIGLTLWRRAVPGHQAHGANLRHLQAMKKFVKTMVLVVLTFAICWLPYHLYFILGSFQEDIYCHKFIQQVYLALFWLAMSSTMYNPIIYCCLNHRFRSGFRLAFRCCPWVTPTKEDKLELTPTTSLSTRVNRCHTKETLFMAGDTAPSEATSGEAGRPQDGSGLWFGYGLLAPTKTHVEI
Sequence of COX-2 (P35354 18-604): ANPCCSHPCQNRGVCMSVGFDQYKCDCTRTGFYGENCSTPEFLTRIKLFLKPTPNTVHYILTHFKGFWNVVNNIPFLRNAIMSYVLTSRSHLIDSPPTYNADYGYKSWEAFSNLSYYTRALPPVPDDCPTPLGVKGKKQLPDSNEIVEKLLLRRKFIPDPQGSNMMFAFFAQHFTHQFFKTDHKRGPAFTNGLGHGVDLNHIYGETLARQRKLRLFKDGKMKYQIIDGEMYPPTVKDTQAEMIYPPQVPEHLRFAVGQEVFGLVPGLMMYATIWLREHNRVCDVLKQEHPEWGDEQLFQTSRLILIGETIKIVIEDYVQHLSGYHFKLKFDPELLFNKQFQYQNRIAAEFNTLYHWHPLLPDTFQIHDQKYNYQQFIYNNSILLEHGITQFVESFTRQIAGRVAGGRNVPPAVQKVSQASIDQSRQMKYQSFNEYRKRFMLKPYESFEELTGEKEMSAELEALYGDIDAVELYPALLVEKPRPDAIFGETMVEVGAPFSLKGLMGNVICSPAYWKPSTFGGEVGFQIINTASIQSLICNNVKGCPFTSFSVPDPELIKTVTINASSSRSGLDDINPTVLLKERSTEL
Sequence of NE transporter (P23975 whole entry): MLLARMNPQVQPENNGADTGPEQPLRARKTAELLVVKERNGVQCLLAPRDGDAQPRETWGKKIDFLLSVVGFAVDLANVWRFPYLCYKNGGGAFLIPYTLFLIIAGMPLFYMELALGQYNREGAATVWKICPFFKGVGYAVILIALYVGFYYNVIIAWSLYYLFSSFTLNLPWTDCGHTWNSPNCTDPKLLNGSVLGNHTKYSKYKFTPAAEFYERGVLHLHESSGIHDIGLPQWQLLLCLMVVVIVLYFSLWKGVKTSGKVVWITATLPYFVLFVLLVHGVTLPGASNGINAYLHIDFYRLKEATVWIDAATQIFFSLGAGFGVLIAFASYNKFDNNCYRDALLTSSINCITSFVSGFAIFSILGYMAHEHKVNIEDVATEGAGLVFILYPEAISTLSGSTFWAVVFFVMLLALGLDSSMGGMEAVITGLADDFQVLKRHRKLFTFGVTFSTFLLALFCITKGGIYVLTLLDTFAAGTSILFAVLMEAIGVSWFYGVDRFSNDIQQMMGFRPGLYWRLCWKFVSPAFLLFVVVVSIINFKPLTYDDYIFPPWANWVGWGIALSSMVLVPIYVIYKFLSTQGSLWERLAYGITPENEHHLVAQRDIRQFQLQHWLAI

Compound: C=C(C)[C@@H]1CC[C@]2(C(=O)O)CC[C@]3(C)C(CC[C@@H]4[C@@]5(C)CC[C@H](O)C(C)(C)[C@@H]5CC[C@]43C)[C@@H]12 (stereo partly drawn) [betulinic acid, Betulinic acid]
- number of entries on the open arm of the elevated plus maze (BALB/c mice; 0.25 mg/kg i.p.): significantly increased
- proportion of time spent on the open arm of the elevated plus maze (BALB/c mice; 0.25 mg/kg i.p.): significantly increased
- number of entries on the open arm of the elevated plus maze (BALB/c mice; 2.5 mg/kg i.p.): significantly increased
- proportion of time spent on the open arm of the elevated plus maze (BALB/c mice; 2.5 mg/kg i.p.): significantly increased
- proportion of time spent in the open arm of the elevated plus maze [1]: increased
- frequency of initiated contact (Sprague-Dawley rats): not significant
- amount of social interaction (interaction time) compared to the control group (Sprague-Dawley rats; data collapsed across 1 h, 2.5 h and 4 h (FIG. 8)): significantly increased the amount of social interaction
- adverse effect on locomotor activity or pattern (Sprague Dawley rats): neither betulinic acid nor the methyl ester of betulinic acid had an adverse effect on locomotor activity or pattern
- effect of chronic drug treatment on weight gain [2]: did not seem to affect weight gain in a significant manner
- non-toxic dose relative to the dose needed to reduce anxiety [3]: 1000 times
- affected by betulinic acid (adrenergic α2): none of the following neurotransmitters or proteins were affected
- affected by betulinic acid (adrenergic β): none of the following neurotransmitters or proteins were affected
- affected by betulinic acid (NE transporter): none of the following neurotransmitters or proteins were affected
- affected by betulinic acid (domaine D2): none of the following neurotransmitters or proteins were affected
- affected by betulinic acid (GABAA, agonist site): none of the following neurotransmitters or proteins were affected
- affected by betulinic acid (GABA C1-channel): none of the following neurotransmitters or proteins were affected
- affected by betulinic acid (GABAB): none of the following neurotransmitters or proteins were affected
- affected by betulinic acid (Glutamate non-selective): none of the following neurotransmitters or proteins were affected
- affected by betulinic acid (Histamine H1): none of the following neurotransmitters or proteins were affected
- affected by betulinic acid (Histamine H2): none of the following neurotransmitters or proteins were affected
- affected by betulinic acid (5-HT1A): none of the following neurotransmitters or proteins were affected
- affected by betulinic acid (5-HT3): none of the following neurotransmitters or proteins were affected
- affected by betulinic acid (muscarinic non-selective): none of the following neurotransmitters or proteins were affected
- affected by betulinic acid (Sigma non-selective): none of the following neurotransmitters or proteins were affected
- affected by betulinic acid (bombesin): none of the following neurotransmitters or proteins were affected
- affected by betulinic acid (cannabinoid C131): none of the following neurotransmitters or proteins were affected
- affected by betulinic acid (CCKA): none of the following neurotransmitters or proteins were affected
- affected by betulinic acid (galanin GalR1): none of the following neurotransmitters or proteins were affected
- affected by betulinic acid (GLP-1): none of the following neurotransmitters or proteins were affected
- affected by betulinic acid (tachykinin NK2): none of the following neurotransmitters or proteins were affected
- affected by betulinic acid (COX-1): none of the following neurotransmitters or proteins were affected
- affected by betulinic acid (COX-2): none of the following neurotransmitters or proteins were affected
- solubility (solvents) [4]: soluble in water, ethanol, ether, acetone, benzene, and chloroform
